Reference: US6461997B1, “Triazole sulfones having herbicidal activity” (Monsanto Technology LLC, priority 1999, dated 2002)

Assays:
[1] = test system: wheat (TRZAW); experiment: Selectivity test, PPI, cool season crop; assay type: in vivo, Triticum aestivum; conditions: PPI application
Experimental: (§1) A pre-prepared topsoil mixture (described above) was placed in a pot and compacted to a depth of 1.0 to 1.25 cm from the top of the pot. Seeds of each of several monocotyledonous and dicotyledonous annual plant species were placed on top of the soil. A sufficient quantity of soil to cover the seeds and level fill the pot was weighed into an open container. A known amount of the test compound was dissolved or suspended in an organic solvent and applied by spraying to this cover soil. The cover soil was thoroughly mixed to distribute the test compound throughout the cover soil, and was then applied as a cover layer over the seeds. Untreated soil was used as a cover layer for control pots. After treatment the plants were placed in a greenhouse where they received 0.64 cm of overhead irrigation. All subsequent watering consisted of a light overhead mist and/or subirrigation as needed for germination and growth. Tables 9 and 10 below relate to warm season plant species which were placed after pre-emergence treatment in a greenhouse with a 30/21° C. day/night temperature regime. Tables 11 and 12 below relates to cool season plant species placed after pre-emergence treatment in a greenhouse or growth chamber with an 18/13° C. day/night temperature regime. Only the compounds of Examples 1, 6, 8, 11, 13 and 15-20 were included in PPI tests.
(§2) Approximately 14 days after planting and treating, the plants were observed and herbicidal efficacy recorded as percent inhibition by comparison with untreated plants.
Additional pre-emergence and PPI tests were conducted by the procedures described above, on warm and cool season weed species in the presence of crop species, to assess herbicidal selectivity. Crop species included in warm season tests were corn (Zea mays, ZEAMX), rice (Oryza sativa, ORYSA) and soybean (Glycine max, GLYMX). Crop species included in cool season tests were wheat (Triticum aestivum, TRZAW), barley (Hordeunm vulgare, HORVX) and oilseed rape (Brassica napus, BRSNS).
Tables 15 and 16 relate to pre-emergence and PPI tests respectively on warm season species. Table 17 relates to pre-emergence tests on cool season species.

[2] = test system: SINAR (wild mustard); experiment: Pre-plant incorporated (PPI) herbicidal activity, cool season; assay type: in vivo, Sinapis arvensis
Experimental: (§3) In another set of tests, the pre-plant incorporated (PPI) activity of compounds of this invention was evaluated on the same species as for the pre-emergence tests described above. In the PPI tests the following procedure, designed to simulate PPI application, was used.
as §1, §2

[3] = test system: SORVU (shattercane); experiment: Pre-emergence herbicidal activity, warm season; assay type: in vivo, Sorghum vulgare; conditions: for Pre-emergence activity (GR80) SORVU: GR80 = lowest tested rate (300, 100, 30, 10 g/ha) with 80% or greater inhibition, approx. 14 days after treating, 30/21° C.
How it was run: (§4)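 Seeds sown in sterilised fertilised topsoil received surface-applied compound in 50:50 acetone/water, typically at 300, 100, 30 and 10 g/ha, then greenhouse-grown at 30/21° C (warm-season species) or 18/13° C (cool-season species). Percent inhibition versus untreated plants was scored at about 14 days, giving GR80; an asterisk marks activity short of 80% at the top rate.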

[4] = test system: DIGSA (large crabgrass); experiment: Pre-emergence herbicidal activity, warm season; assay type: in vivo, Digitaria sanguinalis; conditions: for Pre-emergence activity (GR80) DIGSA: GR80 = lowest tested rate (300, 100, 30, 10 g/ha) with 80% or greater inhibition, approx. 14 days after treating, 30/21° C.
How it was run: as §4

[5] = test system: AGRRE (quackgrass (seedling)); experiment: Pre-plant incorporated (PPI) herbicidal activity, cool season; assay type: in vivo, Elymus repens
Experimental: as §3, §1, §2

[6] = test system: SETFA (giant foxtail); experiment: Pre-plant incorporated (PPI) herbicidal activity, warm season; assay type: in vivo, Setaria faberi
Experimental: as §3, §1, §2

[7] = test system: BRAPP (broadleaf signalgrass); experiment: as above; assay type: in vivo, Brachiaria platyphylla
Experimental: as §3, §1, §2

[8] = test system: AMARE (redroot pigweed); experiment: Pre-emergence herbicidal activity, warm season; assay type: in vivo, Amaranthus retroflexus; conditions: for Pre-emergence activity (GR80) AMARE: GR80 = lowest tested rate (300, 100, 30, 10 g/ha) with 80% or greater inhibition, approx. 14 days after treating, 30/21° C.
How it was run: as §4

[9] = test system: CHEAL (common lambsquarters); experiment: Pre-plant incorporated (PPI) herbicidal activity, warm season; assay type: in vivo, Chenopodium album; conditions: for Percent inhibition CHEAL: PPI application
Experimental: as §3, §1, §2

[10] = test system: PANMI (wild proso millet); experiment: as above; assay type: in vivo, Panicum miliaceum
Experimental: as §3, §1, §2

[11] = pre-plant incorporated, lowest tested rate with 80% or greater inhibition, about 14 days
[12] = weed, PPI application, 100 g/ha
[13] = weed, PPI application, 300 g/ha
[14] = weed, PPI application, 900 g/ha

CCN(CC)C(=O)n1cnc(S(=O)(=O)C(F)(F)Br)n1 [Example 1, 3-(bromodifluoromethylsulfonyl)-1-(N,N-diethylcarbamoyl)-1,2,4-triazole]
inhibition at 30 g/ha ([1]; Triticum aestivum, 30 g/ha, read-out: Percent inhibition TRZAW): 0% | inhibition at 100 g/ha ([1]; Triticum aestivum, 100 g/ha, read-out: Percent inhibition TRZAW): 0% | inhibition at 300 g/ha ([1]; Triticum aestivum, 300 g/ha, read-out: Percent inhibition TRZAW): 10% | inhibition at 900 g/ha ([1]; Triticum aestivum, 900 g/ha, read-out: Percent inhibition TRZAW): 30% | inhibition at 30 g/ha ([2]; Brassica, weed, PPI application, 30 g/ha, read-out: Percent inhibition SINAR): 100% | inhibition at 100 g/ha ([2]; Brassica, weed, PPI application, 100 g/ha, read-out: Percent inhibition SINAR): 100% | inhibition at 300 g/ha ([2]; Brassica, weed, PPI application, 300 g/ha, read-out: Percent inhibition SINAR): 100% | inhibition at 900 g/ha ([2]; Brassica, weed, PPI application, 900 g/ha, read-out: Percent inhibition SINAR): 100% | PPI activity GR80, SINAR [2, 11]: 100 g/ha | Pre-emergence activity (GR80) SORVU [3]: * (activity observed, at least at highest rate, but <80% inhibition) | inhibition at 10 g/ha ([3]; Sorghum bicolor, pre-emergence application, 10 g/ha, read-out: Percent inhibition, weed SORVU): 0% | inhibition at 30 g/ha ([3]; Sorghum bicolor, pre-emergence application, 30 g/ha, read-out: Percent inhibition, weed SORVU): 0% | inhibition at 100 g/ha ([3]; Sorghum bicolor, pre-emergence application, 100 g/ha, read-out: Percent inhibition, weed SORVU): 60% | inhibition at 300 g/ha ([3]; Sorghum bicolor, pre-emergence application, 300 g/ha, read-out: Percent inhibition, weed SORVU): 80% | inhibition at 900 g/ha ([3]; Sorghum bicolor, pre-emergence application, 900 g/ha, read-out: Percent inhibition, weed SORVU): 95% | inhibition at 10 g/ha ([4]; Digitaria sanguinalis, pre-emergence application, 10 g/ha, read-out: Percent inhibition, weed DIGSA): 0% | inhibition at 30 g/ha ([4]; Digitaria sanguinalis, pre-emergence application, 30 g/ha, read-out: Percent inhibition, weed DIGSA): 60% | inhibition at 100 g/ha ([4]; Digitaria sanguinalis, pre-emergence application, 100 g/ha, read-out: Percent inhibition, weed DIGSA): 100% | inhibition at 300 g/ha ([4]; Digitaria sanguinalis, pre-emergence application, 300 g/ha, read-out: Percent inhibition, weed DIGSA): 100% | inhibition at 900 g/ha ([4]; Digitaria sanguinalis, pre-emergence application, 900 g/ha, read-out: Percent inhibition, weed DIGSA): 100% | Pre-emergence activity (GR80) DIGSA [4]: 30 g/ha | inhibition at 30 g/ha ([5]; Elymus repens, weed, PPI application, 30 g/ha, read-out: Percent inhibition AGRRE): 0% | inhibition at 100 g/ha ([5]; Elymus repens, weed, PPI application, 100 g/ha, read-out: Percent inhibition AGRRE): 20% | inhibition at 300 g/ha ([5]; Elymus repens, weed, PPI application, 300 g/ha, read-out: Percent inhibition AGRRE): 60% | inhibition at 900 g/ha ([5]; Elymus repens, weed, PPI application, 900 g/ha, read-out: Percent inhibition AGRRE): 95% | PPI activity GR80, AGRRE [5, 11]: * (activity observed, at least at highest rate, but <80% inhibition) | inhibition at 10 g/ha ([6]; Setaria faberi, PPI application, 10 g/ha, read-out: Percent inhibition SETFA): 100% | inhibition at 30 g/ha ([6]; Setaria faberi, PPI application, 30 g/ha, read-out: Percent inhibition SETFA): 70% | inhibition at 100 g/ha ([6]; Setaria faberi, PPI application, 100 g/ha, read-out: Percent inhibition SETFA): 100% | inhibition at 300 g/ha ([6]; Setaria faberi, PPI application, 300 g/ha, read-out: Percent inhibition SETFA): 100% | inhibition at 900 g/ha ([6]; Setaria faberi, PPI application, 900 g/ha, read-out: Percent inhibition SETFA): 100% | PPI activity GR80, SETFA [6, 11]: 30 g/ha | inhibition at 10 g/ha ([7]; Urochloa platyphylla, PPI application, 10 g/ha, read-out: Percent inhibition BRAPP): 0% | inhibition at 30 g/ha ([7]; Urochloa platyphylla, PPI application, 30 g/ha, read-out: Percent inhibition BRAPP): 0% | inhibition at 100 g/ha ([7]; Urochloa platyphylla, PPI application, 100 g/ha, read-out: Percent inhibition BRAPP): 100% | inhibition at 300 g/ha ([7]; Urochloa platyphylla, PPI application, 300 g/ha, read-out: Percent inhibition BRAPP): 90% | inhibition at 900 g/ha ([7]; Urochloa platyphylla, PPI application, 900 g/ha, read-out: Percent inhibition BRAPP): 100% | PPI activity GR80, BRAPP [7, 11]: 100 g/ha | inhibition at 10 g/ha ([8]; Amaranthus retroflexus, pre-emergence application, 10 g/ha, read-out: Percent inhibition, weed AMARE): 0% | inhibition at 30 g/ha ([8]; Amaranthus retroflexus, pre-emergence application, 30 g/ha, read-out: Percent inhibition, weed AMARE): 0% | inhibition at 100 g/ha ([8]; Amaranthus retroflexus, pre-emergence application, 100 g/ha, read-out: Percent inhibition, weed AMARE): 60% | inhibition at 300 g/ha ([8]; Amaranthus retroflexus, pre-emergence application, 300 g/ha, read-out: Percent inhibition, weed AMARE): 50% | inhibition at 900 g/ha ([8]; Amaranthus retroflexus, pre-emergence application, 900 g/ha, read-out: Percent inhibition, weed AMARE): 90% | Pre-emergence activity (GR80) AMARE [8]: 30 g/ha | PPI activity (GR80) CHEAL ([9]; pre-plant incorporated, GR80 = lowest tested rate with 80% or greater inhibition, approx. 14 days after treating, 30/21° C.): 300 g/ha | inhibition at 10 g/ha ([10]; Panicum miliaceum, PPI application, 10 g/ha, read-out: Percent inhibition PANMI): 0% | inhibition at 30 g/ha ([10]; Panicum miliaceum, PPI application, 30 g/ha, read-out: Percent inhibition PANMI): 60% | inhibition at 100 g/ha ([10]; Panicum miliaceum, PPI application, 100 g/ha, read-out: Percent inhibition PANMI): 99% | inhibition at 300 g/ha ([10]; Panicum miliaceum, PPI application, 300 g/ha, read-out: Percent inhibition PANMI): 100% | inhibition at 900 g/ha ([10]; Panicum miliaceum, PPI application, 900 g/ha, read-out: Percent inhibition PANMI): 100% | PPI activity GR80, PANMI [10, 11]: 30 g/ha

CCN(CC)C(=O)n1cnc(S(=O)(=O)C(F)(F)F)n1 [Example 2]
Percent inhibition TRZAW ([1]; 30 g/ha): 0% | Percent inhibition TRZAW ([1]; 100 g/ha): 0% | Percent inhibition TRZAW ([1]; 300 g/ha): 30% | Percent inhibition TRZAW ([1]; 900 g/ha): 30% | Percent inhibition SINAR ([2]; weed, PPI application, 30 g/ha): 10% | Percent inhibition SINAR [2, 12]: 100% | Percent inhibition SINAR [2, 13]: 100% | Percent inhibition SINAR [2, 14]: 100% | Pre-emergence activity (GR80) SORVU [3]: 300 g/ha | Pre-emergence activity (GR80) DIGSA [4]: 300 g/ha | Percent inhibition AGRRE ([5]; weed, PPI application, 30 g/ha): 0% | Percent inhibition AGRRE [5, 12]: 0% | Percent inhibition AGRRE [5, 13]: 30% | Percent inhibition AGRRE [5, 14]: 60% | Percent inhibition SETFA ([6]; PPI application, 30 g/ha): 20% | Percent inhibition SETFA ([6]; PPI application, 100 g/ha): 100% | Percent inhibition SETFA ([6]; PPI application, 300 g/ha): 100% | Percent inhibition SETFA ([6]; PPI application, 900 g/ha): 90% | Percent inhibition BRAPP ([7]; PPI application, 30 g/ha): 80% | Percent inhibition BRAPP ([7]; PPI application, 100 g/ha): 50% | Percent inhibition BRAPP ([7]; PPI application, 300 g/ha): 90% | Percent inhibition BRAPP ([7]; PPI application, 900 g/ha): 70% | Pre-emergence activity (GR80) AMARE [8]: 30 g/ha | Percent inhibition CHEAL ([9]; 30 g/ha): 90% | Percent inhibition CHEAL ([9]; 100 g/ha): 95% | Percent inhibition CHEAL ([9]; 300 g/ha): 100% | Percent inhibition CHEAL ([9]; 900 g/ha): 100% | Percent inhibition PANMI ([10]; PPI application, 30 g/ha): 20% | Percent inhibition PANMI ([10]; PPI application, 100 g/ha): 80% | Percent inhibition PANMI ([10]; PPI application, 300 g/ha): 100%
